Legend:
[1] = test system: antizyme 1 polyamine-regulated frameshifting sequence; test: Dual luciferase reporter assay of antizyme 1 +1 frameshifting (p2Lucaz1) in transfected cells; assay type: cell-based, human; details: for Maximal frameshifting stimulation: HEK293, standard growth conditions without DFMO, 0.01-0.1 mM spermine, 0.1-2 mM spermidine, 0.5-2 mM putrescine; for Fold increase of antizyme 1 frameshifting upon polyamine addition to DFMO pre-treated cells: HEK293 pre-treated with DFMO, 0.1 mM spermine, 2 mM spermidine, 2 mM putrescine; for Effect on amount of frameshifting, p2Lucaz1: cultured mammalian cells, controls 2.5 mM DFMO
Description: Referring now to FIG. 2, the construction of illustrative embodiments of the dual reporter assay constructs is depicted. These illustrative embodiments use the renilla and firefly luciferases as first and second reporters, respectively. […] Pat. […] The shift site (TCCT), corresponding to UCCU in the corresponding mRNA, is present at nucleotides 55-58 of each of these sequences. […] Zero frame (“0 frame”) controls for each construct were identical except that the first T of the stop codon following the shift site was deleted. It will be appreciated that the DNA constructs disclosed herein are merely examples of dual reporter constructs comprising two reporter-encoding DNA segments separated by a cloning site containing a polyamine-regulated frameshifting sequence, and that all such constructs are included within the scope of the present invention. Cultured mammalian cells are transfected with the dual construct according to method well known in the art. Parallel cell lines are transfected with the +1 reading frame and 0 reading frame construct according to methods well known in the art. The cells are then incubated under varying conditions to test the effect of such conditions on the polyamine regulation. Cells are then lysed and the luciferase activity measured by light emission after injection of luminescence substrate, as is well known in the art. […] This provides a quantitative assay for measuring the polyamine-induced recoding. […] Similarly, mouse germ line (GC-2) cells were obtained from the American Tissue Type culture Collection (Manassas, Va.). […] All cells were incubated at 37° C. in an atmosphere of 5% CO2 All media and antibiotics were obtained from Invitrogen Life Technologies (Carlsbad, Calif.), and all sera were obtained from HyClone Inc. (Logan Utah). The cells were transfected with the dual luciferase constructs p2Lucaz1 and p2Lucaz2 using LIPOFECTIN reagent (Invitrogen Life Technologies). LIPOFECTIN reagent is a 1:1 (w/w) liposome formulation of the cationic lipid […],-trimethylammonium chloride (DOTMA), and dioleoyl phosphotidylethanolamine (DOPE) in membrane filtered water. Cells (0.3×10^5) were plated in 48-well, treated tissue culture plates and grown for 48 hours as described above. DFMO (2.5 mM) was added to half the plates of each cell line to inhibit polyamine synthesis. […] Cells were lysed using passive lysis buffer and luciferase activity was determined using the Dual Luciferase reporter assay (Promega, Madison, Wis.) as described in Grentzmann, supra. For all reactions, light emission was measure between 2 and 12 seconds after 100 μl of luminescence substrate was injected.

[2] = test system: endogenous antizyme; test: Endogenous antizyme levels measured as ODC-inhibitory activity in HEK293 cell extracts; assay type: cell-based, human; details: HEK293 cells, 24 hours; for Antizyme: 1 mM aminoguanidine
Description: The endogenous antizyme levels were also measured for comparison. HEK293 cells were plated in 10 cm dishes with 10 ml of the growth media as described above at a concentration of 3×10^5 cells/ml and incubated for 24 hours. The medium was replaced with fresh medium supplemented with 1 mM aminoguanidine and various concentrations of either putrescine, spermidine, or spermine. The dishes were incubated further for 24 hours, placed on ice, washed with phosphate buffered saline twice, drained completely, and cells were disrupted by 3 freeze/thaw cycles. Then 0.5 ml of cell extract buffer (25 mM Tris-HCl, pH 7.2, 1 mM dithiothreitol, 1 mM EDTA, and 0.01% Tween 80) was added, and the cell suspension was centrifuged at 15,000 rpm for 30 minutes at 4° C. Antizyme activities were measured as ODC-inhibitory activities that could be reversed by excess antizyme inhibitor. Cell extracts (40 μl) were mixed with 2.0 units of mouse kidney ODC in duplicate. To one set, 0.1 μg of GST-antizyme inhibitor protein was added. ODC activity of each mixture was assayed by measuring the release of ^14CO2 from L-[1-^14C] ornithine (as described in I. P. Ivanov et al., Discovery of a Spermatogenesis Stage-specific Ornithine Decarboxylase Antizyme: Antizyme 3, 97 Proc. Nat'l Acad. Sci. USA 97, 4808-4813 (2000); I. P. Ivanov et al., Conservation of Polyamine Regulation by Translational Frameshifting from Yeast to Mammals, 19 EMBO J. 1907-1917 (2000); S. Matsufuji et al., Reading Two Bases Twice: Mammalian Antizyme Frameshifting in Yeast, 15 EMBO J. 1360-1370 (19%)), and expressed as specific activities. Protein concentrations of the extracts were determined with the BCA protein assay kit (Pierce) using bovine serum albumin as a standard. One unit of ODC and antizyme was defined as the activity releasing […] CO2 per hour and the activity inhibiting 1 unit of ODC, respectively.

[3] = test system: antizyme 2 polyamine-regulated frameshifting sequence; test: Dual luciferase reporter assay of antizyme 2 +1 frameshifting (p2Lucaz2) in transfected cells; assay type: cell-based, human; details: for Effect on amount of frameshifting, p2Lucaz2: cultured mammalian cells, controls 2.5 mM DFMO
Description: Referring now to FIG. 2, the construction of illustrative embodiments of the dual reporter assay constructs is depicted. These illustrative embodiments use the renilla and firefly luciferases as first and second reporters, respectively. The sequences referred to herein as SEQ ID NO:1 and SEQ ID NO:2, which comprise antizyme 1 and 2 polyamine-regulated frameshifting sequences, respectively, were cloned into the SalI and BamHI sites of the p2Luc vector (U.S. Pat. No. 6,143,502) to produce plasmids p2Lucaz1 and p2Lucaz2. The shift site (TCCT), corresponding to UCCU in the corresponding mRNA, is present at nucleotides 55-58 of each of these sequences. Constructs were also prepared with deletions of the upstream stimulatory sequences of the antizyme 1 polyamine-regulated frameshifting sequence (SEQ ID NO:3) and the antizyme 2 polyamine-regulated frameshifting sequence (SEQ ID NO:4), resulting in plasmids p2Lucaz1usdel and p2Lucaz2usdel. Other constructs were prepared with deletions of the downstream pseudoknot stimulatory sequences of the antizyme 1 polyamine-regulated frameshifting sequence (SEQ ID NO:5) and the antizyme 2 polyamine-regulated frameshifting sequence (SEQ ID NO:6), resulting in plasmids p2Lucaz1pkdel and p2Lucaz2pkdel. Zero frame (“0 frame”) controls for each construct were identical except that the first T of the stop codon following the shift site was deleted. […]
Cultured mammalian cells are transfected with the dual construct according to method well known in the art. Parallel cell lines are transfected with the +1 reading frame and 0 reading frame construct according to methods well known in the art. […] Cells are then lysed and the luciferase activity measured by light emission after injection of luminescence substrate, as is well known in the art. […] This provides a quantitative assay for measuring the polyamine-induced recoding. […]

[4] = test system: HEK293 cells; test: Intracellular polyamine levels by HPLC analysis of whole cell lysates; assay type: cell-based, human
Description: Polyamine levels were also measured for comparison. Intracellular polyamine levels were determined by HPLC analysis of whole cell lysates. Cells (3×10^5) were grown in 6-well plates for 48 hours at 37° C. in an atmosphere of 5% CO2, either in the presence or absence of DFMO. Cells were then mock transfected as described above. […] Cells were allowed to grow for 12 hours, and 5×10^6 cells were harvested and washed three times with phosphate buffered saline.

[5] = test system: antizyme 1 and 2 frameshifting sequences with upstream stimulatory sequences deleted; test: Dual luciferase frameshifting assay, upstream deletion constructs p2Lucaz1usdel and p2Lucaz2usdel; assay type: cell-based, human; details: 1 mM spermidine added to DFMO (2.5 mM) treated HEK293 cells
Description: (§1) Referring now to FIG. 2, the construction of illustrative embodiments of the dual reporter assay constructs is depicted. These illustrative embodiments use the renilla and firefly luciferases as first and second reporters, respectively. The sequences referred to herein as SEQ ID NO:1 and SEQ ID NO:2, which comprise antizyme 1 and 2 polyamine-regulated frameshifting sequences, respectively, were cloned into the SalI and BamHI sites of the p2Luc vector (U.S. Pat. No. 6,143,502) to produce plasmids p2Lucaz1 and p2Lucaz2. The shift site (TCCT), corresponding to UCCU in the corresponding mRNA, is present at nucleotides 55-58 of each of these sequences. […]
(§2) To determine the effectiveness of the role of sequences flanking the frameshift site in inducing frameshifting levels, dual luciferase constructs were made in which antizyme sequences preceding and following the antizyme 1 and 2 frameshift sites were deleted. […] As described above, these constructs were then transiently transfected into HEK293 cells grown in standard growth nedia or media with 2.5 mM DFMO, and frameshift levels were measured following the addition of exogenously added spermidine (1 mM).

[6] = test system: antizyme 1 and 2 frameshifting sequences with downstream pseudoknot deleted; test: Dual luciferase frameshifting assay, downstream pseudoknot deletion constructs p2Lucaz1pkdel and p2Lucaz2pkdel; assay type: cell-based, human; details: 1 mM spermidine added to DFMO (2.5 mM) treated HEK293 cells
Description: as §1, §2

[7] = test system: antizyme 3 frameshifting sequence; test: Dual luciferase reporter assay with p2Luc containing the antizyme 3 frameshifting sequence; assay type: cell-based; details: cultured mammalian cells, controls 2.5 mM DFMO

NCCCCN [Putrescine, putrescine]
Maximal frameshifting stimulation [1]: approximately 40%
Fold increase of antizyme 1 frameshifting upon polyamine addition to DFMO pre-treated cells [1]: ~10 fold
Fold Increase (antizyme vs control) ([2]; 2 mM exogenous polyamine): 1.5
Antizyme ([2]; 2 mM exogenous polyamine): 3.0 ± 0.7 units/mg

NCCCCNCCCN [Spermidine, spermidine]
Maximal frameshifting stimulation [1]: approximately 40%
Fold increase of antizyme 1 frameshifting upon polyamine addition to DFMO pre-treated cells [1]: ~10 fold
Antizyme 2 frameshifting response compared with antizyme 1 ([3]; HEK293, with or without DFMO, FIG. 4): showed a very similar response to polyamine depletion and addition
Fold Increase (antizyme vs control) ([2]; 1 mM exogenous polyamine): 1.1
Antizyme ([2]; 1 mM exogenous polyamine): 23 ± 0.2 units/mg
Fold Increase (antizyme vs control) ([2]; 2 mM exogenous polyamine): 1.6
Antizyme ([2]; 2 mM exogenous polyamine): 3.4 units/mg
Increase of intracellular spermidine levels over control cells ([4]; 1 mM spermidine added to DFMO treated HEK293 cells): 1.5 fold
Effect on intracellular putrescine and spermine levels ([4]; 1 mM spermidine added to DFMO treated or untreated HEK293 cells): restored putrescine and spermine levels to nearly that of control cells
Increase of intracellular spermidine levels over control cells ([4]; 1 mM spermidine added to untreated (no DFMO) HEK293 cells): 1.7 fold
Stimulation of frameshifting, upstream deletion constructs [5]: 5-6 fold
Stimulation of frameshifting, downstream (pseudoknot) deletion constructs [6]: approximately 2 fold

NCCCNCCCCNCCCN [Spermine, spermine]
Maximal frameshifting stimulation [1]: approximately 40%
Fold increase of antizyme 1 frameshifting upon polyamine addition to DFMO pre-treated cells [1]: ~10 fold
Fold Increase (antizyme vs control) ([2]; 0.4 mM exogenous polyamine): 1.2
Antizyme ([2]; 0.4 mM exogenous polyamine): 2.6 ± 0.5 units/mg
Fold Increase (antizyme vs control) ([2]; 0.8 mM exogenous polyamine): 1.4
Antizyme ([2]; 0.8 mM exogenous polyamine): 3.0 ± 0.6 units/mg

N=C(N)NCCCCN [agmatine]
Effect on amount of frameshifting, p2Lucaz1 ([1]; 0-16 mM agmatine, FIG. 7A): significantly increased the amount of frameshifting observed
Effect on amount of frameshifting, p2Lucaz2 ([3]; 0-16 mM agmatine, FIG. 7A): significantly increased the amount of frameshifting observed
Effect on amount of frameshifting, antizyme 3 frameshifting sequence ([7]; 0-16 mM agmatine, FIG. 7A): no increase in frameshifting was observed

NCCCCCN [cadaverine]
Effect on amount of frameshifting, p2Lucaz1 ([1]; 0-32 mM cadaverine, FIG. 7B): effective for significantly increasing the amount of frameshifting observed
Effect on amount of frameshifting, p2Lucaz2 ([3]; 0-32 mM cadaverine, FIG. 7B): effective for significantly increasing the amount of frameshifting observed
Effect on amount of frameshifting, antizyme 3 frameshifting sequence ([7]; 0-32 mM cadaverine, FIG. 7B): no increase in frameshifting was observed
